The structures appear in SMILES notation.

The values below come from ChEMBL document CHEMBL5465560, “Selectivity Literature for EUbOPEN Chemogenomic Library” (2024).

Experiment [1] addresses T1, Testis-specific serine/threonine-protein kinase 2 (Homo sapiens) (UniProt Q96PF2).
T1 sequence (whole entry): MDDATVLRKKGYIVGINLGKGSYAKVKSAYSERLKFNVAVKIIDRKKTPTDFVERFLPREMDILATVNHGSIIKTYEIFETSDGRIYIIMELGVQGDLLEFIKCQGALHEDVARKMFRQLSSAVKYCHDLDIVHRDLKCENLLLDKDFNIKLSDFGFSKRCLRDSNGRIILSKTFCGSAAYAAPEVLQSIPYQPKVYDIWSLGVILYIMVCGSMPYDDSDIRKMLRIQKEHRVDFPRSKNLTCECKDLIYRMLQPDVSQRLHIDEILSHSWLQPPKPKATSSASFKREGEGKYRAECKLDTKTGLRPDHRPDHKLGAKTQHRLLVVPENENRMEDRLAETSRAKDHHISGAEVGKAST
The experiment is described as follows: Selectivity interaction (Kinase panel (Z-LYTE Assay)) EUB0001632a TSSK2. As to conditions: at 10 µM.

The next experiment addresses Misshapen-like kinase 1 (Homo sapiens, UniProt Q8N4C8). The experiment is described as follows: Selectivity interaction (KinomeScan (DiscoverX)) EUB0001619a MINK1. Conditions: at 1 µM.
Experiment [2] has as its target T2, Dual specificity mitogen-activated protein kinase kinase 7 (Homo sapiens) (UniProt O14733).
T2 sequence (whole entry): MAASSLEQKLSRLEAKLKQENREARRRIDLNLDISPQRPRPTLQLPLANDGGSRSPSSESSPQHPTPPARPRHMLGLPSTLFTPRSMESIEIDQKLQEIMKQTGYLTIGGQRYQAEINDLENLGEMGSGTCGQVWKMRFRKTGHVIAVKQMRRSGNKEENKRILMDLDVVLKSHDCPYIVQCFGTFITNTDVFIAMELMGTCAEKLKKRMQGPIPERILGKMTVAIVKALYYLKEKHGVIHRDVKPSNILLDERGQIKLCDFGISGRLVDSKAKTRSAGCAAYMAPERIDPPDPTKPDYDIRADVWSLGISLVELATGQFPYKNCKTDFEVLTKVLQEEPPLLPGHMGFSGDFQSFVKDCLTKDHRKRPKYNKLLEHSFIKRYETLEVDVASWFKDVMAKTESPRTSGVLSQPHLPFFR
Conditions: at 10 µM.

The target of experiment [3] is T3, MAP kinase-activated protein kinase 5 (Homo sapiens) (UniProt Q8IW41).
T3 sequence (whole entry): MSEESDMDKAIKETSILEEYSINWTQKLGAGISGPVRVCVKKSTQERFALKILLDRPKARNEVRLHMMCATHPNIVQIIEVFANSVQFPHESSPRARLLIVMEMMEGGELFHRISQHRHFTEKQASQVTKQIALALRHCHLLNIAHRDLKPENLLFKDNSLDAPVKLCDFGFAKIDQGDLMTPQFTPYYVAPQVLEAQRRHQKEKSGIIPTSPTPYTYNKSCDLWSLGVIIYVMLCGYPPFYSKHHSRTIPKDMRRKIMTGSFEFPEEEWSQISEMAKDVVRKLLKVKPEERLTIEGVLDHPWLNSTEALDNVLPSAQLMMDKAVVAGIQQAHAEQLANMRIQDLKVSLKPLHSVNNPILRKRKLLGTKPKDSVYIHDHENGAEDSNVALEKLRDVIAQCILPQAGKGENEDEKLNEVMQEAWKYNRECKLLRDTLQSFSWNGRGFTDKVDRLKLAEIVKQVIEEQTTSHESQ
The experiment is described as follows: Selectivity interaction (Kinase panel (Invitrogen)) EUB0000639a MAPKAPK5. Conditions: at 200 nM.

The target in experiment [4] is Cyclin-dependent kinase-like 3 (Homo sapiens) (UniProt Q8IVW4). The experiment is described as follows: Selectivity interaction (KinomeScan (DiscoverX)) EUB0000045b CDKL3.
Sequence of Cyclin-dependent kinase-like 3 (Homo sapiens) (Q8IVW4 whole entry, looked up): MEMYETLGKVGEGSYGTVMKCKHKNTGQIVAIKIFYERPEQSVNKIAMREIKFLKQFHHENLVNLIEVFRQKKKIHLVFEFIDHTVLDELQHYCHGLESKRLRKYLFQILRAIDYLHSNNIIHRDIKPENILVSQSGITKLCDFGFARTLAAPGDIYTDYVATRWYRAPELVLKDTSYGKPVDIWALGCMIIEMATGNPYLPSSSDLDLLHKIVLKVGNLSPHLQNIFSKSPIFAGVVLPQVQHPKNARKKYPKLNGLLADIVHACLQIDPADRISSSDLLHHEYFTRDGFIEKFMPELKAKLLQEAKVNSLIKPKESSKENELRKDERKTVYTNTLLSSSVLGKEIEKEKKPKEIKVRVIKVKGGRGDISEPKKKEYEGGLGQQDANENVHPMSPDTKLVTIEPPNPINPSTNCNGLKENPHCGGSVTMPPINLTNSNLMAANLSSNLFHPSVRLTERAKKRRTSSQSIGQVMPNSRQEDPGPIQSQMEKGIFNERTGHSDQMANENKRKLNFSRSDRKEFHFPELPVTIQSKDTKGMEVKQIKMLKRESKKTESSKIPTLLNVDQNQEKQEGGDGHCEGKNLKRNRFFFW
Experiment [5] has as its target MAP/microtubule affinity-regulating kinase 3 (Homo sapiens) (UniProt P27448). In words: Selectivity interaction (KinomeScan (DiscoverX)) EUB0000045b MARK3.
Experiment [6] deals with T4, Tyrosine-protein kinase Mer (Homo sapiens) (UniProt Q12866).
T4 sequence (whole entry): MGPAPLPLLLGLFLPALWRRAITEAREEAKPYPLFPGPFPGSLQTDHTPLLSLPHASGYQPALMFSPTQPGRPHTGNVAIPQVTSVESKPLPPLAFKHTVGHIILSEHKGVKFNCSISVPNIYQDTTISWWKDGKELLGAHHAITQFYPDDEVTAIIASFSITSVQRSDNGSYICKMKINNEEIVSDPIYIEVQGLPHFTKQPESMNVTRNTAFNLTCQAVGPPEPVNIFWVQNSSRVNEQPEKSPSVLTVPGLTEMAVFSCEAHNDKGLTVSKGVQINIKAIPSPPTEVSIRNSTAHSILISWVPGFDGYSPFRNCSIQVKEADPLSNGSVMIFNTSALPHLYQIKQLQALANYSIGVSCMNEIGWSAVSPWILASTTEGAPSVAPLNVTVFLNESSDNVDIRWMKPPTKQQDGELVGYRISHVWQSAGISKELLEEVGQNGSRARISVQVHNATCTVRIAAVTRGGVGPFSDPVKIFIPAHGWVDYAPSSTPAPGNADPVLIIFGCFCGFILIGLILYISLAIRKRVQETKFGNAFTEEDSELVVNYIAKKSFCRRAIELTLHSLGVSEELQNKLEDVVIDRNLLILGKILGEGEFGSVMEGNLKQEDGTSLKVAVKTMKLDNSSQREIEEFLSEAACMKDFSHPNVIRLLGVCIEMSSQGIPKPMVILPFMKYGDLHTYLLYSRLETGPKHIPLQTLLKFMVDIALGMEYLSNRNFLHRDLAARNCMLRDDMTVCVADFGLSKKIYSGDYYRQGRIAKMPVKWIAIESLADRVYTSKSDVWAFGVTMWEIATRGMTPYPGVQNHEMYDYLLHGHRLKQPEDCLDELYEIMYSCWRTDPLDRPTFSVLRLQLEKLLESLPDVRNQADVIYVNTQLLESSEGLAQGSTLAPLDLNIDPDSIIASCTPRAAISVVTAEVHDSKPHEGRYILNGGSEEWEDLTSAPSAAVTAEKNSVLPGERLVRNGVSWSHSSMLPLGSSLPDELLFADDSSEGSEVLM
The experiment is described as follows: Selectivity interaction (KinomeScan (DiscoverX)) EUB0000229b MERTK. Conditions: at 10 µM.

Sequence of MAP/microtubule affinity-regulating kinase 3 (Homo sapiens) (P27448 whole entry, looked up): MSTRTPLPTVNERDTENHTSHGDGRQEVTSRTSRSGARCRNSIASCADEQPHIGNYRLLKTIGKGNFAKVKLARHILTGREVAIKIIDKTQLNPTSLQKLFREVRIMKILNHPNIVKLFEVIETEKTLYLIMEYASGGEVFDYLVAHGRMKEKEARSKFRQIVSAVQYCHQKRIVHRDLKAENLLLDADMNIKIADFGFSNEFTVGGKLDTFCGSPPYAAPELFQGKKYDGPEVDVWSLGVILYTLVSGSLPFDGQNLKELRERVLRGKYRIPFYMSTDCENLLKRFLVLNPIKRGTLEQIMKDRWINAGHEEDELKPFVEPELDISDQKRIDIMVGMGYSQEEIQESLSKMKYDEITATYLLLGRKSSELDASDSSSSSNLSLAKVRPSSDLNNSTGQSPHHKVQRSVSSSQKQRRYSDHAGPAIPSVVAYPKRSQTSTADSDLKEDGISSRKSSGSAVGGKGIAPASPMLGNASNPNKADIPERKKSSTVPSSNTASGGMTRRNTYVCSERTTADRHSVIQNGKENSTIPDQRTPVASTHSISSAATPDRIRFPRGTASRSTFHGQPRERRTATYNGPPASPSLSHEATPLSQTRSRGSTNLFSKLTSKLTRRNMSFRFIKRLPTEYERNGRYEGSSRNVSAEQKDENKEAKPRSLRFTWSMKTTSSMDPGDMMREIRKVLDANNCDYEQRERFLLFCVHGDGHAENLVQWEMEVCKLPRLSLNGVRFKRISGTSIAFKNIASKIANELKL
Sequence of Misshapen-like kinase 1 (Q8N4C8 whole entry, looked up): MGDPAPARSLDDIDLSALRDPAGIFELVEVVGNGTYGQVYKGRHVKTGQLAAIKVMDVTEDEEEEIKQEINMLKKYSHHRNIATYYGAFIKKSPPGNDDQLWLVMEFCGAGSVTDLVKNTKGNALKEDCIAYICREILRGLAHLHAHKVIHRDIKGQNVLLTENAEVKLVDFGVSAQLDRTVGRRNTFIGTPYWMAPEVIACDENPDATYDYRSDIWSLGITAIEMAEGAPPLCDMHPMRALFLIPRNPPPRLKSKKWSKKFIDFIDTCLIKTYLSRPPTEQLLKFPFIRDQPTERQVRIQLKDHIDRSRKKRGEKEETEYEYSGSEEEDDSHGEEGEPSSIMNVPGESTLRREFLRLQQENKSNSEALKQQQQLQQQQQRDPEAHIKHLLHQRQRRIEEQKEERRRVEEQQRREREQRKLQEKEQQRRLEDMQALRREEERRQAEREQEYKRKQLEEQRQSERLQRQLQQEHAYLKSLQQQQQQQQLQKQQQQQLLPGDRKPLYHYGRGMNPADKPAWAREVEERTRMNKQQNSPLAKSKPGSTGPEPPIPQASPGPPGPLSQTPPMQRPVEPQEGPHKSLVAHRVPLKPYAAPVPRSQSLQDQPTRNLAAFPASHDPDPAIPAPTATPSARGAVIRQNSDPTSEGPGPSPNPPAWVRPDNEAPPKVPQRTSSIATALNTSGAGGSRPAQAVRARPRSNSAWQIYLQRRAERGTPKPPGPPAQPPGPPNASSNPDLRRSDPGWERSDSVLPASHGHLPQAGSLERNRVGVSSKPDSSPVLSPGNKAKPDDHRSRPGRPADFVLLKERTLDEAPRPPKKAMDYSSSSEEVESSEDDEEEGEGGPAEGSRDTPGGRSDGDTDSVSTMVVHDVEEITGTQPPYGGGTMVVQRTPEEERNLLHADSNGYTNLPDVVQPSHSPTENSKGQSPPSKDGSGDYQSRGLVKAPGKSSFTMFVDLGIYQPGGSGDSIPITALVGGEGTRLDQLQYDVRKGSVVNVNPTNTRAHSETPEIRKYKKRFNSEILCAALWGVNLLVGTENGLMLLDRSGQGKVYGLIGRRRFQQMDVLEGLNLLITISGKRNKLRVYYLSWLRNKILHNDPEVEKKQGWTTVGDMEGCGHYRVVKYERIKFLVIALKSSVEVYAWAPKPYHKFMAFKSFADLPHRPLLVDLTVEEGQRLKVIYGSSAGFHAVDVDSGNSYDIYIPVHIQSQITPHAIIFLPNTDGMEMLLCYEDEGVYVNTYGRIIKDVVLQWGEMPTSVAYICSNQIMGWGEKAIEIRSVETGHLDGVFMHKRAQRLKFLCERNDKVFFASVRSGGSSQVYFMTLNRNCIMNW

For the compound `Cn1cc(-n2cnc3c(NCc4nc5cc(Cl)c(Cl)cc5[nH]4)nc(N4CCOCC4)nc32)cn1`, the % of control in experiment [1] was -16.5%. Turning to `N#Cc1cccc(-c2c[nH]c3ncnc(N4CCOCC4)c23)c1`, the % of control at Misshapen-like kinase 1 stood at 46%. On to `Cc1cc([C@@H](C)Nc2ccccc2C(=O)O)c2nc(N3CCOCC3)cc(=O)n2c1` [AZD-6482], for which, in experiment [2], the % of control worked out at 90%. `CC[C@@H]1[C@H](F)C(=O)N[C@@H]1COc1nccc2cc(C(N)=O)c(OC)cc12` [ZIMLOVISERTIB] came in with a % of inhibition in experiment [3] of 8.71%. Consider `C=CC(=O)Nc1cc(-n2c(=O)ccc3cnc4ccc(-c5ccc(NS(C)(=O)=O)cc5)cc4c32)ccc1C`, for which the % of control in experiment [4] (at 1 µM) was found to be 100%; in experiment [4] (at 10 µM), 96%; in experiment [5] (at 1 µM) it was 75%; in experiment [5] (at 10 µM), 97%. For the compound `COc1cc(N(C)c2ccnc3ccc(C(F)(F)F)cc23)cc(OC)c1OC`, the % binding in experiment [6] was determined as 100%.
